Key:
ASFV protease (pS273R) [1] = molecular target: T1, ASFV protease (pS273R) (African swine fever virus BA71V, UniProt Q00946); test: biochemical
T1 construct: gene Ba71V-111

ASFV protease (pS273R) [2] = molecular target: T1, ASFV protease (pS273R); format: biochemical

T1 sequence (Q00946 whole entry, looked up): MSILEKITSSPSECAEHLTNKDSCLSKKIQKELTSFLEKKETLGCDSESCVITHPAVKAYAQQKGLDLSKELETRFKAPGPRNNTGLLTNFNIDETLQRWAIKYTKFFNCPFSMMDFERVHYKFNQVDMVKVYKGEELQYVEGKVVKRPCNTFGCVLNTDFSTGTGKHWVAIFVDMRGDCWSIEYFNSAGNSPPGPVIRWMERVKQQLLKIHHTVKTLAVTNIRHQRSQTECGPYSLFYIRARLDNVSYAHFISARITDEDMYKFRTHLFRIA

SMILES | IC50 (ASFV protease (pS273R) [1]) | RFU at 40 μM (ASFV protease (pS273R) [2])
O=c1c(O)c(-c2cc(O)c(O)c(O)c2)oc2cc(O)cc(O)c12 [myricetin, 3,3′,4′,5,5′,7-Hexahydroxyflavone] | 8.4 µM | 
C[C@@H]1O[C@@H](Oc2c(-c3cc(O)c(O)c(O)c3)oc3cc(O)cc(O)c3c2=O)[C@H](O)[C@H](O)[C@H]1O [myricitrin] | 2.7 µM | 
O=c1c(O)c(-c2ccc(O)cc2O)oc2cc(O)cc(O)c12 [morin] |  | Its activity, however, is similar to those of herbacetin, kaempferol and morin
O=c1c(O)c(-c2ccc(O)cc2)oc2c(O)c(O)cc(O)c12 [herbacetin] |  | Its activity, however, is similar to those of herbacetin, kaempferol and morin
O=c1c(O)c(-c2ccc(O)cc2)oc2cc(O)cc(O)c12 [kaempferol] |  | Its activity, however, is similar to those of herbacetin, kaempferol and morin
